# EPA's ToxValDB 9.5
# Where “and” joins values, the source holds several entries; their conditions need not be identical. Equal entries are not always repeated.
# What was measured:
# Canidae [1] = details: repeat dose other; inhalation; Dog Other
# Cavia sp. = details: repeat dose other; inhalation
# Rattus norvegicus [2] = test system: Rattus norvegicus
# Rattus norvegicus [3] = details: oral, M/F
# Homo sapiens [4] = details: clinical, oral
# Oryctolagus sp. [5] = details: acute; dermal; New Zealand
# Rattus norvegicus [6] = assay: LD100; higher = less toxic; details: acute; oral
# Anas platyrhynchos = details: oral
# Rattus norvegicus [7] = details: subchronic, oral, liver and kidney toxicity
# Rattus norvegicus [8] = details: M/F
# Rattus norvegicus [9] = details: subchronic; duration: 12 weeks; oral; diet; Kidney: Toxicity + Liver: Toxicity
# Homo sapiens [10] = details: clinical; oral; diet; M; rbc che depression
# Homo sapiens [11] = details: clinical; duration: 56 days; oral; capsule; M; neurological
# Oryctolagus sp. [12] = details: acute; duration: 1 days; inhalation; M; New Zealand; neurological
# Homo sapiens [13] = details: clinical; duration: 47 days; oral; capsule; Blood: Hematological effects
# Cavia porcellus = details: repeat dose other; oral; Guinea Pig
# Gallus gallus = details: repeat dose other; oral
# Rattus norvegicus [14] = assay: LD0; higher = less toxic; details: acute
# Sus scrofa = details: oral, Not specified; for LOEL: duration: 14 weeks, M/F, Changes in serum testosterone and estradiol and testes weight
# Canidae [15] = details: subchronic; duration: 7 weeks; oral; gavage; M/F; Beagle
# Oryctolagus sp. [16] = details: developmental; duration: 12 days; oral; gavage; F; New Zealand; developmental
# [17] = short-term, duration: 28 days, oral, diet, Fischer 344
compound,measurement,setting,value
C#C [Ethyne],NOAEL,Canidae [1],852000 mg/m3
same,NOAEL,Cavia sp.,852000 mg/m3
same,NOAEL,"Mus musculus; repeat dose other, inhalation",852000 mg/m3
same,NOAEL,"Rattus norvegicus [2]; repeat dose other, inhalation",852000 mg/m3
Oc1ccc(O)cc1 [Hydroquinone],NOEL,"Rattus norvegicus [3]; subchronic, duration: 13 weeks, gavage, Fischer 344, Deaths + Clinical Observation: Tremors Convulsions + Body Weight Changes: decrease + Absolute Organ Weight: Liver increase + Relative Organ …",25 mg/kg-day
same,NOAEL,"Homo sapiens [4]; duration: 5 months, M/F, Hematologic, Urinary",4.3 mg/kg-day
CC(O)C(=O)O (configuration not stated) [Lactic acid],NOAEL,"Mus musculus; reproduction developmental, duration: 10 days, oral, gavage, CD1, generation: F1",≥ 570 mg/kg-day
same,NOAEL,"Mus musculus; reproduction developmental, duration: 10 days, oral, gavage, F, CD1",≥ 570 mg/kg-day
same,LD50,Oryctolagus sp. [5],> 2000 mg/kg
same,LC50,"Rattus norvegicus [2]; acute, Inhalation, Fischer 344",> 7.94 µg/mL
same,LOAEL,"Rattus norvegicus [2]; subchronic, duration: 13 weeks, dermal, F, Sprague-Dawley",886 mg/kg-day
same,LD100,Rattus norvegicus [6],11200 mg/kg
ClC1C(Cl)C(Cl)C(Cl)C(Cl)C1Cl (configuration not stated) [Lindane],LOAEL,Anas platyrhynchos,20 mg/kg-day
same,NOAEL,Anas platyrhynchos,2 mg/kg-day
same,NOAEL,Rattus norvegicus [7]; F,0.33 mg/kg-day
same,LOAEL,Rattus norvegicus [7]; M,1.55 mg/kg-day
same,NOAEL,"Rattus norvegicus [8]; developmental, duration: 13 weeks, oral, drinking water, Sprague-Dawley, developmental",7.6e-05 mg/kg-day
same,LOAEL,"Rattus norvegicus [8]; developmental, duration: 1 days, oral, gavage, Bor:spf, developmental",1 mg/kg-day
same,NOAEL,Rattus norvegicus [9],0.33 mg/kg-day
CCOC(=O)CC(SP(=S)(OC)OC)C(=O)OCC (configuration not stated) [Malathion],LEL,Homo sapiens [10],0.34 mg/kg-day
same,NOEL,Homo sapiens [10],0.23 mg/kg-day
same,NOAEL,Homo sapiens [11],0.23 mg/kg-day
same,NOAEL,Oryctolagus sp. [12],65 mg/m3
same,NOAEL,"Rattus norvegicus [8]; chronic, duration: 2 years, oral, diet, Fischer-344, neurological",2 mg/kg-day
same,LOAEL,"Rattus norvegicus [8]; subchronic, duration: 13 weeks, inhalation, whole body, Sprague-Dawley, respiratory",100 mg/m3
same,NOEL,Homo sapiens [13],0.23 mg/kg-day
O=[N+]([O-])[O-].[K+] [Potassium nitrate],LOAEL,Cavia porcellus,1130 mg/kg-day
same,NOAEL,Cavia porcellus,507 mg/kg-day
[Cl-].[Rb+] [Rubidium chloride (RbCl)],LOAEL,"Homo sapiens [4]; duration: 3 weeks, capsule, F",5.3 mg/kg-day
O.O.[Na+].[Na+].[O]=[Mo](=[O])([O-])[O-] [Sodium molybdate (Na2MoO4) dihydrate],LOAEL,Gallus gallus,35.3 mg/kg-day
same,NOAEL,Gallus gallus,3.5 mg/kg-day
C[S-].[Na+] [Sodium thiomethoxide],LD50,"Rattus norvegicus [2]; acute, oral, Sprague-Dawley",≥ 75 mg/kg and ≤ 161 mg/kg
same,LD50,"Rattus norvegicus [2]; acute, oral, gavage, Sprague-Dawley",109 mg/kg and ≥ 84 mg/kg and ≤ 146 mg/kg
same,LD0,"Rattus norvegicus [14]; dermal, semiocclusive, Sprague-Dawley",≥ 400 mg/kg
CC(=O)O[C@H]1CC[C@H]2[C@@H]3CCC4=CC(=O)CCC4=C3C=C[C@]12C [Trenbolone acetate],LOEL,"Sus scrofa; chronic, diet",0.002 mg/kg-day
same,LOEL,Sus scrofa; feed,2 µg/kg-day
O=P(c1ccccc1)(c1ccccc1)c1ccccc1 [Triphenylphosphine oxide],LOAEL,Canidae [15],50 mg/kg-day
CCCCC(CC)COC(=O)c1ccc(C(=O)OCC(CC)CCCC)c(C(=O)OCC(CC)CCCC)c1 (configuration not stated) [Tris(2-ethylhexyl) trimellitate],LD50,"Mus musculus; acute, oral, gavage",> 3200 mg/kg
same,LD50,"Rattus norvegicus [2]; acute, oral, gavage",> 3200 mg/kg
same,LD50,"Rattus norvegicus [2]; acute, oral, gavage, Crj:CD",> 2000 mg/kg
same,NOAEL,"Rattus norvegicus [2]; reproduction developmental, duration: 20 days, oral, gavage, Crj:CD, generation: F1",1000 mg/kg-day
same,NOAEL,"Rattus norvegicus [2]; reproduction developmental, duration: 20 days, oral, gavage, F, Crj:CD",1000 mg/kg-day
same,NOAEL,"Rattus norvegicus [2]; reproduction developmental, duration: 20 days, oral, gavage, M, Crj:CD",100 mg/kg-day
same,LOAEL,Rattus norvegicus [2]; [17],650 mg/kg-day
same,NOAEL,Rattus norvegicus [2]; [17],184 mg/kg-day
same,NOAEL,"Rattus norvegicus [2]; short-term, duration: 28 days, oral, gavage, F, Crj:CD",> 1000 mg/kg-day
same,NOAEL,"Rattus norvegicus [2]; short-term, duration: 28 days, oral, gavage, M, Crj:CD",> 1000 mg/kg-day
same,LD0,"Rattus norvegicus [14]; inhalation, Crj:CD",2600 mg/m3
CC1=C[C@H]2O[C@@H]3[C@H](O)C[C@](C)([C@@]2(CO)[C@H](O)C1=O)[C@@]31CO1 [Vomitoxin],NOEL,"Sus scrofa; repeat dose other, diet, Emesis",0.25 mg/kg-day
Cc1ccc(O)cc1 [p-Cresol],NOAEL,"Rattus norvegicus [3]; short-term, duration: 28 days, diet, Fischer 344, Clinical Observation: Hunched posture Rough hair coat + Body Weight Changes: Mean body weight decrease + Food Consumption: decrease + …",1000 ppm
same,NOAEL,"Rattus norvegicus [3]; subchronic, duration: 13 weeks, gavage, Sprague-Dawley, Deaths + Clinical Observation: Lethargy Tremors Convulsions Coma: + Body Weight Changes: Mean body weight decrease, Body weight gain …",50 mg/kg-day
same,NOAEL,Oryctolagus sp. [16],5 mg/kg-day
